Assay type in all cases: biochemical
Assay [1] has as its target T1, WT EZH2 (Homo sapiens (Human), UniProt Q15910). In words: WT EZH2 nucleosome assay. The note with it: PRC2 4-protein complex 4 nM, 1.5 μM SAM, HeLa oligonucleosomes. As to the method:
The genes for EZH2, EED, SUZ12, and RBBP4 proteins were cloned into pBacPAK9 vectors (Clontech). RBBP4 was FLAG tagged on the N-terminal end. The baculovirus expressions of these proteins were used to co-infect SF9 insect cells. Insect cell pellets were lysed in a buffer containing 25 mM Tris pH8.0, 300 mM NaCl, 0.5 mM TCEP, complete EDTA-free protease inhibitor (Roche), 0.1% NP-40. The supernatant from the lysate was incubated with FLAG® M2 antibody resin (Sigma). The resin was washed on the chromatography column and eluted with 0.2 mg/ml FLAG peptide. The elute was incubated with omnicleave nucleases (Epicentre Technologies) at 4° C. overnight, then concentrated and loaded onto a Superdex 200 (GE Healthcare) column. The Superdex 200 column was eluted with 25 mM Tris pH8.0, 150 mM NaCl, 0.5 mM TCEP. Fractions containing the PRC2 complex were pooled.
A. Compound preparation • 1.
B. Reagent preparation • 1. […] Dilute TCA to 20% in DI water
C. Enzyme reaction • 1. […] Some compounds were tested under high SAM conditions.
D. Data analysis • 1. IC50 values were determined by fitting the data to a 4-parameter IC50 equation using proprietary curve fitting software. • 2. For compounds tested under high SAM conditions, Ki^app values were obtained by fitting the dose response curve to a model for competitive inhibition using proprietary curve fitting software. Preparation of HeLa Oligonucleosomes: Reagents • Cell Pellet: 15 L HeLa S3 (Accelgen)+6 L HeLa S3 (in house) • Mnase (Worthington Biochemicals) Equipment • SW-28 Rotor • Dounce Homogenizer/B Pestle Buffers • Lysis: 20 mM Hepes pH 7.5, 0.25M Sucrose, 3 mM MgCl2, 0.5% Nonidet P-40, 0.5 mM TCEP, 1 Roche Protease Tablet • B: 20 mM Hepes pH7.5, 3 mM MgCl2, 0.5 mM EDTA, 0.5 mM TCEP, 1 Roche Protease Tablet • MSB: 20 mM Hepes pH7.5, 0.4 M NaCl, 1 mM EDTA, 5% v/v Glycerol, 0.5 mM TCEP, 0.2 mM PMSF • LSB: 20 mM Hepes pH7.5, 0.1M NaCl, 1 mM EDTA, 0.5 mM TCEP, 0.2 mM PMSF • NG: 20 mM Hepes pH7.5, 1 mM EDTA, 0.4 m NaCl, 0.2 mM PMSF, 0.5 mM TCEP • Storage: 20 mM Hepes pH7.5, 1 mM EDTA, 10% Glycerol, 0.2 mM PMSF, 0.5 mM TCEP Protocol

The next assay addresses EZH2 Mutant Y641N (Homo sapiens (Human), UniProt Q15910, Y641N). Briefly: EZH2 Mutant Y641N nucleosome assay. To be noted: PRC2 4-protein complex 6 nM, 1.5 μM SAM, HeLa oligonucleosomes.
In assay [2] the target is T1, WT EZH2. Briefly: WT EZH2 nucleosome assay (10X SAM, high SAM conditions). The note with it: 15 uM SAM, Ki app from competitive inhibition fit, read-out: WT EZH2 Nucleosome assay (10X SAM) Ki.
The mark [3] stands for this setting: read-out: WT EZH2 Nucleosome assay IC50.
Where [4] appears, read: read-out: EZH2 Mutant Y641N Nucleosome assay IC50.
The mark [5] stands for this setting: WT EZH2 Nucleosome assay IC50 (μM).
Where [6] appears, read: EZH2 Mutant Y641N Nucleosome assay IC50 (μM).

We go through 28 compounds from patent publication US10570121B2, “Substituted dihydroisoquinolinone compounds” (priority 2014, dated 2020).

Where two headings read alike, the source gives them in different places.

T1 sequence (Q15910 whole entry, looked up): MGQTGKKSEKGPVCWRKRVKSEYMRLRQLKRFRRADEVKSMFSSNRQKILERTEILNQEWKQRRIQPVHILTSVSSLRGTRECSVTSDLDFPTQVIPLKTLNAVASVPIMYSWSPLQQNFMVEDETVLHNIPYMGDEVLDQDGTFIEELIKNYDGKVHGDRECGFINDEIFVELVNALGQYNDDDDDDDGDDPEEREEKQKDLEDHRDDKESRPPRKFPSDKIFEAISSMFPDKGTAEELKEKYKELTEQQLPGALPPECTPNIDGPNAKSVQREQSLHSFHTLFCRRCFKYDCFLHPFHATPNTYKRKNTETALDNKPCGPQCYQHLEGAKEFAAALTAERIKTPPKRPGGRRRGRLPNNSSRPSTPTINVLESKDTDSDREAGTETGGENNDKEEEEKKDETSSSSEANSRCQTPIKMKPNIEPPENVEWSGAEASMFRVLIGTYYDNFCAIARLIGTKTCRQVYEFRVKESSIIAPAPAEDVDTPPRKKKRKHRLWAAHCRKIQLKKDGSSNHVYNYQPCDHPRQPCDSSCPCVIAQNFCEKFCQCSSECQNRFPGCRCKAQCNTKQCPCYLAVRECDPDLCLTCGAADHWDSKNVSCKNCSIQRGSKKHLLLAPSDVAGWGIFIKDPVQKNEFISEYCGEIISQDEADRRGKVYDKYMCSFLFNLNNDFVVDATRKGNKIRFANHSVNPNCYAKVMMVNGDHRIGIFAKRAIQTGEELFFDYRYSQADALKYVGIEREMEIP
T1 sequence (O75530 whole entry partner, looked up): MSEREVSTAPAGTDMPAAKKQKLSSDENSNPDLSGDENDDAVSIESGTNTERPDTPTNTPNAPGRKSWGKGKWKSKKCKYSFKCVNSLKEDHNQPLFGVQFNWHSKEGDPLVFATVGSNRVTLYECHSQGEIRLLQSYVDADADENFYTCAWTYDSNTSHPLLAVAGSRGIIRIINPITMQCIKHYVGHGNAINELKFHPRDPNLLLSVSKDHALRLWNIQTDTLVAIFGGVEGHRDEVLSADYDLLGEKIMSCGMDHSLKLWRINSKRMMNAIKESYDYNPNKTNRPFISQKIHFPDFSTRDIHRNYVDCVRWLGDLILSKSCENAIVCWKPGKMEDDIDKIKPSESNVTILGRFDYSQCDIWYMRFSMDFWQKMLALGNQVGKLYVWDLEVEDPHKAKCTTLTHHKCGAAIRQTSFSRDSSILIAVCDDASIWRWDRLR
T1 sequence (Q15022 whole entry partner, looked up): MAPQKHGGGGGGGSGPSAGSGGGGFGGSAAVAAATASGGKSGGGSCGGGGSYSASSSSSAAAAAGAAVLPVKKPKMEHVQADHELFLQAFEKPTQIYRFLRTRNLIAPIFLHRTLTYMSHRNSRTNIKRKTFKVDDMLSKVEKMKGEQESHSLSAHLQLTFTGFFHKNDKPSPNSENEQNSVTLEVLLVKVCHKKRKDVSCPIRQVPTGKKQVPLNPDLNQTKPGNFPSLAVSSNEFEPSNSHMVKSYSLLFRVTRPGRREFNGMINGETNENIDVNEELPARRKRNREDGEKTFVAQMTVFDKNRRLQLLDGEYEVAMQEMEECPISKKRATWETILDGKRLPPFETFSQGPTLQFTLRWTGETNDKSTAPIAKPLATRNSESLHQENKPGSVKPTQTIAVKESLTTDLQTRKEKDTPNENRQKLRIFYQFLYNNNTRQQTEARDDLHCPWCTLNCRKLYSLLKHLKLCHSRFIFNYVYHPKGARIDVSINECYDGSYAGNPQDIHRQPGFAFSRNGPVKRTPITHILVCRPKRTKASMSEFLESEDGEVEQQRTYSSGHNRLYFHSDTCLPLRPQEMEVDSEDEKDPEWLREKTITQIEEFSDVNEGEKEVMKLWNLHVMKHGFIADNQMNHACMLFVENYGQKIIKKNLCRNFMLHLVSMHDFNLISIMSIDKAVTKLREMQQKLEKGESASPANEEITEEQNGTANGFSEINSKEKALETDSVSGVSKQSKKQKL
T1 sequence (Q09028 whole entry partner, looked up): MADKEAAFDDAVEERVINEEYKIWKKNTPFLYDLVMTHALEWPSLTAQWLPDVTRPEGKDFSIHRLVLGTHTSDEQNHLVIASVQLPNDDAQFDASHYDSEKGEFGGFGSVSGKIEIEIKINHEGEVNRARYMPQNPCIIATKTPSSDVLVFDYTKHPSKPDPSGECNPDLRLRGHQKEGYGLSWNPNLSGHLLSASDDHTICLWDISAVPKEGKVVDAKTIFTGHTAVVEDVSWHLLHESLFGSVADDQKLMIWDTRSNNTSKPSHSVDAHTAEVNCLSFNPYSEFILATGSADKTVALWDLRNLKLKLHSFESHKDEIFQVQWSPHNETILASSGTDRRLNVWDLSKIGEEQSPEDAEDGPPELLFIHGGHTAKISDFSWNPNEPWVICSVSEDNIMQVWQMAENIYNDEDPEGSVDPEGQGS
EZH2 Mutant Y641N, sequence (Q15910 whole entry Y641N, looked up): as the sequence (Q15910 whole entry, looked up) above, with Y641N counted along it
EZH2 Mutant Y641N, sequence (O75530 whole entry partner, looked up): as the sequence (O75530 whole entry partner, looked up) above
EZH2 Mutant Y641N, sequence (Q15022 whole entry partner, looked up): as the sequence (Q15022 whole entry partner, looked up) above
EZH2 Mutant Y641N, sequence (Q09028 whole entry partner, looked up): as the sequence (Q09028 whole entry partner, looked up) above

The term IC50 denotes the midpoint of a concentration-inhibition curve. As to `Cc1cc(C)c(CN2CCc3c(Cl)cc([C@H](CO)[C@H]4CCOC4)c(Cl)c3C2=O)c(=O)[nH]1` [Example 1, 5,8-dichloro-2-[(4,6-dimethyl-2-oxo-1,2-dihydropyridin-3-yl)methyl]-7-{(1R)-2-hydroxy-1-[(3R)-tetrahydrofuran-3-yl]ethyl}-3,4-dihydroisoquinolin-1(2H)-one], the concentration for half-maximal inhibition (IC50) was 0.001 µM on WT EZH2 [1] (setting [3]) and 0.003 µM on EZH2 Mutant Y641N (setting [4]).

In the case of `COC(CO)c1cc(Cl)c2c(c1Cl)C(=O)N(Cc1c(C)cc(C)[nH]c1=O)CC2` (single isomer, unassigned) [Example 11, 5,8-dichloro-2-[(4,6-dimethyl-2-oxo-1,2-dihydropyridin-3-yl)methyl]-7-(2-hydroxy-1-methoxyethyl)-3,4-dihydroisoquinolin-1(2H)-one], the IC50 was determined as 0.038 µM at WT EZH2 [1] (setting [3]) and 0.174 µM on EZH2 Mutant Y641N (setting [4]). Take `Cc1cc(C)c(CN2CCc3c(Cl)cc([C@H](CO)[C@@H]4CCOC4)c(Cl)c3C2=O)c(=O)[nH]1` (single isomer, unassigned) [Example 2, 5,8-dichloro-2-[(4,6-dimethyl-2-oxo-1,2-dihydropyridin-3-yl)methyl]-7-{(1R*)-2-hydroxy-1-[(3S*)-tetrahydrofuran-3-yl]ethyl}-3,4-dihydroisoquinolin-1(2H)-one]: the values for the half-maximal inhibitory concentration (IC50) on WT EZH2 [1] (setting [5]) and against EZH2 Mutant Y641N (setting [6]) were 0.002 µM and 0.004 µM, respectively. As for `Cc1cc(C)c(CN2CCc3c(Cl)cc(C(C)CN(C)CCO)c(Cl)c3C2=O)c(=O)[nH]1` (racemic) [Example 21], the results for the half-maximal inhibitory concentration (IC50) at WT EZH2 [1] (setting [3]) and at EZH2 Mutant Y641N (setting [4]) were 0.015 µM and 0.109 µM, respectively. Consider `COC(CO)c1cc(Cl)c2c(c1Cl)C(=O)N(Cc1c(C)cc(C)[nH]c1=O)CC2` (single isomer, unassigned) [Example 10, 5,8-dichloro-2-[(4,6-dimethyl-2-oxo-1,2-dihydropyridin-3-yl)methyl]-7-(2-hydroxy-1-methoxyethyl)-3,4-dihydroisoquinolin-1(2H)-one], for which the IC50 on WT EZH2 [1] (setting [3]) came to 0.326 µM; at EZH2 Mutant Y641N (setting [4]), 1.98 µM. For `Cc1cc(C)c(CN2CCc3c(Cl)cc(C(C)CO)c(Cl)c3C2=O)c(=O)[nH]1` (racemic) [Example 17], the IC50 is 0.035 µM against WT EZH2 [1] (setting [5]) and 0.125 µM on EZH2 Mutant Y641N (setting [6]). For `CCC(CO)c1cc(Cl)c2c(c1Cl)C(=O)N(Cc1c(C)cc(C)[nH]c1=O)CC2` (single isomer, unassigned) [Example 29], the IC50 was determined as 0.017 µM against WT EZH2 [1] (setting [5]) and 0.107 µM against EZH2 Mutant Y641N (setting [6]). The like results for `CCC(CO)c1cc(Cl)c2c(c1Cl)C(=O)N(Cc1c(C)cc(C)[nH]c1=O)CC2` (single isomer, unassigned) [Example 30] were, in that order, 0.004 µM and 0.02 µM. The like results for `Cc1cc(C)c(CN2CCc3c(Cl)cc(C(CO)C4CCOCC4)c(Cl)c3C2=O)c(=O)[nH]1` (single isomer, unassigned) [Example 37] were, in that order, 0.001 µM and 0.002 µM. The like results for `CCC(O)c1cc(Cl)c2c(c1Cl)C(=O)N(Cc1c(C)cc(C)[nH]c1=O)CC2` (single isomer, unassigned) [Example 28] were, in that order, 0.126 µM and 1.89 µM. Take `Cc1cc(C)c(CN2CCc3c(Cl)cc(C(C)C)c(Cl)c3C2=O)c(=O)[nH]1` [Example 14, 5,8-dichloro-2-[(4,6-dimethyl-2-oxo-1,2-dihydropyridin-3-yl)methyl]-7-(propan-2-yl)-3,4-dihydroisoquinolin-1(2H)-one]: the results for the half-inhibitory concentration (IC50) at WT EZH2 [1] (setting [3]) and on EZH2 Mutant Y641N (setting [4]) were 0.008 µM and 0.04 µM, respectively.

With `CCC(CO)c1cc(Cl)c2c(c1Cl)C(=O)N(Cc1c(C)cc(C)[nH]c1=O)CC2` (racemic) [Example 20], the IC50 on WT EZH2 [1] (setting [5]) turned out to be 0.011 µM; at EZH2 Mutant Y641N (setting [6]), 0.053 µM. The like results for `CCC(O)c1cc(Cl)c2c(c1Cl)C(=O)N(Cc1c(C)cc(C)[nH]c1=O)CC2` (racemic) [Example 25] were, in that order, 0.084 µM and 0.693 µM. With `Cc1cc(C)c(CN2CCc3c(Cl)cc(C(C)C4CCN(C(=O)CO)CC4)c(Cl)c3C2=O)c(=O)[nH]1` (racemic) [Example 24], the IC50 amounted to 0.004 µM at WT EZH2 [1] (setting [3]) and 0.008 µM on EZH2 Mutant Y641N (setting [4]).

In the case of `COC(c1cc(Cl)c2c(c1Cl)C(=O)N(Cc1c(C)cc(C)[nH]c1=O)CC2)C1CCN(C(=O)CO)CC1` (single isomer, unassigned) [Example 35, 5,8-dichloro-2-[(4,6-dimethyl-2-oxo-1,2-dihydropyridin-3-yl)methyl]-7-{[1-(hydroxyacetyl)piperidin-4-yl](methoxy)methyl}-3,4-dihydroisoquinolin-1(2H)-one], the 50% inhibitory concentration (IC50) against WT EZH2 [1] (setting [5]) and at EZH2 Mutant Y641N (setting [6]) was 0.002 µM in each case. Consider `Cc1cc(C)c(CN2CCc3c(Cl)cc(C(C)CCO)c(Cl)c3C2=O)c(=O)[nH]1` (racemic) [Example 33], for which the IC50 on WT EZH2 [1] (setting [3]) came out at 0.012 µM; on EZH2 Mutant Y641N (setting [4]), 0.07 µM. With `Cc1cc(C)c(CN2CCc3c(Cl)cc(C([C@H](C)O)[C@@H](C)O)c(Cl)c3C2=O)c(=O)[nH]1` (single isomer, unassigned) [Example 42], the concentration for half-maximal inhibition (IC50) is 0.012 µM on WT EZH2 [1] (setting [3]) and 0.102 µM on EZH2 Mutant Y641N (setting [4]). As to `Cc1cc(C)c(CN2CCc3c(Cl)cc([C@@H](CO)[C@H]4CCOC4)c(Cl)c3C2=O)c(=O)[nH]1` (single isomer, unassigned) [Example 3, 5,8-dichloro-2-[(4,6-dimethyl-2-oxo-1,2-dihydropyridin-3-yl)methyl]-7-{(1S*)-2-hydroxy-1-[(3R*)-tetrahydrofuran-3-yl]ethyl}-3,4-dihydroisoquinolin-1(2H)-one], on WT EZH2 [1] (setting [5]), the IC50 came out at 0.066 µM. With `Cc1cc(C)c(CN2CCc3c(Cl)cc(C(CO)C4CCOCC4)c(Cl)c3C2=O)c(=O)[nH]1` (racemic) [Example 31], the 50% inhibitory concentration (IC50) on WT EZH2 [1] (setting [5]) turned out to be 0.004 µM; on EZH2 Mutant Y641N (setting [6]), 0.006 µM.

For `COC(c1cc(C)c2c(c1Cl)C(=O)N(Cc1c(C)cc(C)[nH]c1=O)CC2)C1CCN(C(=O)CO)CC1` (single isomer, unassigned) [Example 169], the Ki on WT EZH2 [2] amounted to 15.1 nM. For the same compound, the IC50 at EZH2 Mutant Y641N (setting [4]) worked out at 0.07 µM. Take `COC(c1cc(C)c2c(c1Cl)C(=O)N(Cc1c(C)cc(C)[nH]c1=O)CC2)C1CN(C2COC2)C1` (single isomer, unassigned) [Example 182]: the Ki on WT EZH2 [2] was 2230 nM. Further, the half-maximal inhibitory concentration (IC50) on EZH2 Mutant Y641N (setting [4]) amounted to 9.15 µM.

Regarding `COC(c1cc(Cl)c2c(c1Cl)C(=O)N(Cc1c(C)cc(C)[nH]c1=O)CC2)C1CN(C(=O)[C@H](C)O)C1` (single isomer, unassigned) [Example 173], on WT EZH2 [2], the Ki is 16 nM. The IC50 at EZH2 Mutant Y641N (setting [4]) came out at 0.206 µM. With `Cc1cc(C)c(CN2CCc3c(Cl)cc(C(C)N4CCOCC4)c(Cl)c3C2=O)c(=O)[nH]1` (single isomer, unassigned; (+)) [Example 90, (+)-5,8-dichloro-2-[(4,6-dimethyl-2-oxo-1,2-dihydropyridin-3-yl)methyl]-7-[1-(morpholin-4-yl)ethyl]-3,4-dihydroisoquinolin-1(2H)-one], the Ki on WT EZH2 [2] is 459 nM. For the same compound, at EZH2 Mutant Y641N (setting [4]), the concentration for half-maximal inhibition (IC50) is 5.63 µM. The matching figures for `COC(c1cc(Br)c2c(c1Cl)C(=O)N(Cc1c(C)cc(C)[nH]c1=O)CC2)C1CCN(C)CC1` (single isomer, unassigned) [Example 147]: 128 nM and 0.543 µM. The matching figures for `Cc1cc(C)c(CN2CCc3c(Cl)cc(C(C)C4CN(C)C4)c(Cl)c3C2=O)c(=O)[nH]1` (single isomer, unassigned) [Example 188]: 14 nM and 0.151 µM. Regarding `COc1cc(C)[nH]c(=O)c1CN1CCc2c(C)cc(C(OC)C3COC3)c(Cl)c2C1=O` (single isomer, unassigned) [Example 145], the Ki at WT EZH2 [2] came to 70 nM. For the same compound, at EZH2 Mutant Y641N (setting [4]), the IC50 amounted to 0.272 µM.

Consider `Cc1cc(C)c(CN2CCc3c(Cl)cc([C@@H](CO)[C@@H]4CCCO4)c(Cl)c3C2=O)c(=O)[nH]1` [Example 46], for which the Ki at WT EZH2 [2] was 121 nM. On EZH2 Mutant Y641N (setting [4]), the IC50 was 0.423 µM. The like results for `COC(c1cc(Cl)c2c(c1Cl)C(=O)N(Cc1c(C)cc(C)[nH]c1=O)CC2)C1CN(S(C)(=O)=O)C1` (single isomer, unassigned) [Example 177] were, in that order, 49 nM and 0.282 µM.
